Test results from patent US5665724A, “Substituted pyrimidinylaminothiazole derivatives useful as platelet aggregation inhibitors” (Ortho Pharmaceutical Corporation, priority 1995, dated 1997).
One block for each molecule: values may come before it.

Key:
[1] = test system: fibrinogen binding to activated platelets; test: 125I-Fibrinogen binding to activated platelets; conditions: thrombin-activated platelets, 125I-fibrinogen 0.15 μM; for % Inhibition Fibrinogen Binding @ 30 μM: 30 μM compound, 10 minutes, room temperature; for IC50: printed in column % Inhibition Fibrinogen Binding @ 30 μM, read-out: Fibrinogen Binding, IC50 (concentration given in lieu of a percentage)
Procedure: The compounds of the invention as identified above are evaluated for platelet aggregation inhibition activity as indicated by the percentage of non-aggregated platelets which are available for binding in accordance with the following procedure.
^125 I-Fibrinogen binding to activated platelets is a modification of the procedure described by Bennett et al., 1988. Briefly, 40 mL of PRP (obtained from Biological Specialty Corp., Lansdale, Pa.) are centrifuged at 120×g to remove contaminating red cells. Aspirin (50 μM) is added and the PRP is incubated at 37° C. for 20 minutes. The pH of the PRP is adjusted to 6.5 with 3.8% sodium citrate and 0.9 μM of PGE1 is added. Platelets are concentrated by a 300×g centrifugation (10 minutes) and the pellet is resuspended in 4 mL. of Tyrode's buffer. The platelet suspension (4 mL) is gel-filtered through a Sepharose-2B column (50 mL bed volume). The platelet count is adjusted to 1×10^8 platelets per 200 mL. The binding reaction is performed in polystyrene tubes (final volume […]). Reagents are added in the following order: 80 mL of Tyrode's buffer, 50 mL of CaCl2 (final concentration (f.c.) […]) and 50 mL of thrombin (f.c. 0.1 unit/mL). The platelet suspension is then added and the mixture is allowed to incubate at room temperature for 2 minutes. Hirudin (50 mL, f.c. 0.5 unit/mL) is immediately added to prevent the catalytic activity of thrombin. Various concentrations of the compound to be tested […] with the competing radioligand ^125 I-fibrinogen (f.c. of 0.15 μM) are added. The mixture is incubated for 10 minutes at room temperature. To terminate the binding reaction the platelets are sedimented (10,000×g for 3 minutes) through silicone oil (3:1 hi-phenol 550/methyl silicone 200, W. F. Nye, Inc., New Bedford, Mass.), in an Eppendorf centrifuge.
The tips of the centrifuge tubes containing the pelleted platelets are cut off and counted for ^125 I-fibrinogen associated with the stimulated platelets. The amount of platelet radioactivity measured in the presence of nonlabeled fibrinogen (4 mg/mL) is considered the nonspecific binding. All samples are repeated in triplicate.
Data are expressed as a percent at concentrations of 30 μM of specifically bound ^125 I-fibrinogen to the platelets in Table 6 below. Positive percentages of fibrinogen binding indicates higher activity for inhibiting platelet aggregation since only non-aggregated or free platelets are available for fibrinogen binding. Alternatively, a concentration is provided in lieu of a percentage to indicate the IC50 of concentration of compound which provides 50% fibrinogen binding.

[2] = test system: platelets (platelet aggregation); test: Platelet aggregation inhibition (gel-filtered platelets, thrombin or ADP agonist, aggregometer); assay type: cell-based; conditions: 37° C.; for inhibition at 50 µM: Platelet, 50 μM compound, three minutes; for IC50: % Inhibition Platelet Aggregation @ 50 μM, read-out: Platelet Aggregation, concentration given in lieu of a percentage (IC50)
Procedure: The percentage of platelet aggregation is calculated as an increase in light transmission of drug treated platelet concentrate vs control treated platelet concentrate. Blood is obtained from drug free, normal donors and placed into tubes containing 0.13M sodium citrate (two sources are routinely used: platelet concentrate obtained from Biological Specialty Corp., Lansdale, Pa. or whole blood obtained from donors). Platelet rich plasma (PRP) is collected by centrifugation of the concentrate or whole blood at 130×g for 15 minutes at 25° C. The PRP (5 mL) is gel filtered through Sepharose 2B (bed volume 50 mL), and the platelet count is adjusted to 2×10^7 platelets per sample. The following constituents are added to a siliconized cuvette: 250 μL of the concentrated platelet filtrate, 100 μL of Tyrode's buffer (0.14M NaCl, 0.0027M KCl, 0.012M NaHCO3, 0.76 mM Na2 HPO4, 0.0055M glucose and 2 mg/mL BSA pH 7.4), 50 μL of 2 mM calcium and test drug […]. Aggregation is monitored in a dual channel Chrono-log Aggregometer for three minutes following the addition of agonist (thrombin 50 μL of 1 unit/mL, or ADP 50 μL of 100 μM). The final assay volume is 500 μL. The reaction takes place at 37° C. The peak aggregation response is calculated as the increase in light transmission units over a three minute period. The difference of the increase in light transmission between control and drug treated platelets is then expressed as a percent of the nondrug treated controls.

Structure (SMILES): CCCNCCCNC(=O)c1cnc(Nc2nc(-c3cccc(Cl)c3)cs2)nc1C(F)(F)F [Cmpd 16]
% Inhibition Fibrinogen Binding @ 30 μM [1]: 20%
inhibition at 50 µM [2]: 96%

Structure (SMILES): O=C(NCCCN1CCCCCC1)c1cnc(Nc2nc(-c3cccc(C(F)(F)F)c3)cs2)nc1C(F)(F)F [Cmpd 7]
% Inhibition Fibrinogen Binding @ 30 μM [1]: 14%
inhibition at 50 µM [2]: 95%

Structure (SMILES): CCN(CC)CCCNC(=O)c1cnc(Nc2nc(-c3ccc(C)cc3)cs2)nc1C(F)(F)F [Cmpd 2]
% Inhibition Fibrinogen Binding @ 30 μM [1]: 12%
inhibition at 50 µM [2]: 75%

IC50 [1]: 30 µM
IC50 [2]: 15 µM
Structure (SMILES): O=C(NCCCNC1CCCCC1)c1cnc(Nc2nc(-c3cccc(C(F)(F)F)c3)cs2)nc1C(F)(F)F [Cmpd 6]

Structure (SMILES): O=C(NCCCNC1CCCC1)c1cnc(Nc2nc(-c3cccc(C(F)(F)F)c3)cs2)nc1C(F)(F)F [Cmpd 8]
% Inhibition Fibrinogen Binding @ 30 μM [1]: 50%
inhibition at 50 µM [2]: 85%

IC50 [1]: 3.4 µM
Structure (SMILES): CCCCNCCCNC(=O)c1cnc(Nc2nc(-c3cccc(C(F)(F)F)c3)cs2)nc1C(F)(F)F [Cmpd 9]
inhibition at 50 µM [2]: 96%

Structure (SMILES): CN1CCN(CCCNC(=O)c2cnc(Nc3nc(-c4cccc(C(F)(F)F)c4)cs3)nc2C(F)(F)F)CC1 [Cmpd 12]
% Inhibition Fibrinogen Binding @ 30 μM [1]: 47%
inhibition at 50 µM [2]: 90%

Structure (SMILES): COc1ccc(-c2csc(Nc3ncc(C(=O)NCCCN(C)C)c(C(F)(F)F)n3)n2)cc1 [Cmpd 5]
% Inhibition Fibrinogen Binding @ 30 μM [1]: 47%
inhibition at 50 µM [2]: 96%

Structure (SMILES): O=C(NCCCN1CCCC1=O)c1cnc(Nc2nc(-c3cccc(C(F)(F)F)c3)cs2)nc1C(F)(F)F [Cmpd 11]
% Inhibition Fibrinogen Binding @ 30 μM [1]: 10%
inhibition at 50 µM [2]: 25%

Structure (SMILES): O=C(NCCCNC1CCCCC1)c1cnc(Nc2nc(-c3cccc(C(F)(F)F)c3)cs2)nc1-c1ccccc1 [Cmpd 10]
% Inhibition Fibrinogen Binding @ 30 μM [1]: 15%
inhibition at 50 µM [2]: 25%

Structure (SMILES): O=C(NCCCn1ccnc1)c1cnc(Nc2nc(-c3cccc(C(F)(F)F)c3)cs2)nc1C(F)(F)F [Cmpd 3]
% Inhibition Fibrinogen Binding @ 30 μM [1]: 4%
inhibition at 50 µM [2]: 55%

Structure (SMILES): O=C(NCCCN1CCCCC1)c1cnc(Nc2nc(-c3cccc(Cl)c3)cs2)nc1C(F)(F)F [Cmpd 13]
% Inhibition Fibrinogen Binding @ 30 μM [1]: 16%
inhibition at 50 µM [2]: 94%

IC50 [2]: 10 µM
Structure (SMILES): NCCCNC(=O)c1cnc(Nc2nc(-c3cccc(C(F)(F)F)c3)cs2)nc1C(F)(F)F [Cmpd 4]
% Inhibition Fibrinogen Binding @ 30 μM [1]: 50%

Structure (SMILES): O=C(NCCCN1CCCCCC1)c1cnc(Nc2nc(-c3cccc(Cl)c3)cs2)nc1C(F)(F)F [Cmpd 14]
% Inhibition Fibrinogen Binding @ 30 μM [1]: 15%
inhibition at 50 µM [2]: 98%

Structure (SMILES): Cc1sc(Nc2ncc(C(=O)NCCCNC3CCCCC3)c(C(F)(F)F)n2)nc1-c1ccccc1 [Cmpd 18]
% Inhibition Fibrinogen Binding @ 30 μM [1]: 47%
inhibition at 50 µM [2]: 58%

IC50 [2]: 14.8 µM
Structure (SMILES): O=C(NCCCNC1CCCCC1)c1cnc(Nc2nc(-c3cccc(Cl)c3)cs2)nc1C(F)(F)F [Cmpd 15]
% Inhibition Fibrinogen Binding @ 30 μM [1]: 73%

Structure (SMILES): CCCCNCCCNC(=O)c1cnc(Nc2nc(-c3ccc(C)cc3)cs2)nc1C(F)(F)F [Cmpd 17]
% Inhibition Fibrinogen Binding @ 30 μM [1]: 43%
inhibition at 50 µM [2]: 36%
